Experimental data: US20250195490A1, “ALPHA-METHYLENE AND AMINOMETHYL LACTONES AND LACTAMS FOR TREATMENT OF CLOSTRIDIOIDES DIFFICILE INFECTION (CDI)” (Purdue Research Foundation, priority 2022, published 2025)
≈ marks a conversion by molar mass, not a printed value.

What was measured:
L. crispatus = test: MIC against human normal gut microbiota: L. crispatus; format: cell-based, Lactobacillus crispatus
Excerpt: (§1) The activity of the selected lactones against the human gut microbiota was also examined. Microbiota interfere with C. difficile's ability to colonize the gastrointestinal tract and subsequently cause infection. Many antibiotics inhibit/kill the endogenous microflora, which permits enhanced colonization by C. difficile and infection. Three different bacterial species that are present in the gut microflora were used in this experiment; Bifidobacterium (anaerobic Gram-positive bacteria), Bacteroides (anaerobic Gram-negative bacteria) and Lactobacillus (microaerophilic Gram-positive bacteria). Ideal compounds/drugs are those with selective antibacterial activity against C. difficile so as to protect the indigenous microflora present in the GI tract from being damaged/killed (which will exacerbate infections caused by C. difficile).
(§2) Bifidobacterium and Bacteroides were first grown for 48 hours at 37° C., anaerobically, using brain heart infusion supplemented (BHIS) agar (brain heart infusion agar supplemented with hemin, vitamin K and L-cysteine). Lactobacillus was cultivated on MRS agar and incubated in the presence of 5% CO2 for 48 hours at 37° C. Each bacterium was suspended in phosphate-buffered saline (PBS) to achieve 0.5 McFarland standard and subsequently diluted in brain heart infusion supplemented broth (for Bifidobacterium and Bacteroides) or in MRS broth (for Lactobacillus) to achieve a bacterial inoculum of approximately 5×10^5 CFU/mL. Bacteria were then seeded in 96-well plates containing serial dilutions of the compounds and incubated for 48 hours. MICs reported in Table 4 are the minimum concentration of compound/control drug that inhibited the visual growth of bacteria.

E. faecium = test: Broth microdilution against vancomycin-resistant E. faecium; format: cell-based, Enterococcus faecium; conditions: gradient 128 to 1 μg/mL
Protocol: (§3) Method: The minimum inhibitory concentration (MIC) of the compounds and control drugs, linezolid (antibiotic), vancomycin (antibiotic), 5-fluorocytosine (5-FC, antifungal drug), and fluconazole (antifungal drug) was determined using the broth microdilution method according to the guidelines outlined by the Clinical and Laboratory Standards Institute (CLSI) against clinically relevant bacterial (methicillin-resistant Staphylococcus aureus (MRSA), vancomycin-resistant Enterococcus faecalis (VRE), vancomycin-resistant Enterococcus faecium (VRE), Clostridioides difficile and Escherichia coli) and fungal (Candida albicans) strains. A solution equivalent to 0.5 McFarland standard was prepared from each strain and diluted in cation-adjusted Mueller-Hinton broth (for S. aureus and E. coli), tryptone soy broth (for E. faecalis), or brain heart infusion broth (for E. faecium) to achieve a bacterial inoculum of about 5×10^5 CFU/mL. C. difficile strains were cultured in brain heart infusion broth supplemented with hemin and vitamin K. C. albicans was diluted in RPMI medium supplemented with 3-(N-morpholino) propanesulfonic acid to achieve a fungal concentration of about 1.5×10^3 CFU/mL. Compounds and control drugs were added in the first row of the 96-well plates and diluted with media containing bacteria (to achieve a concentration gradient ranging from 128 to 1 μg/mL). For MRSA, VRE, and E. coli strains, plates were then incubated aerobically at 37° C. for at least 18 hours. C. albicans was incubated aerobically at 37° C. for 24 hours. Plates containing C. difficile were incubated anaerobically at […] for 48 hours.

Bi. longum = test: MIC against human normal gut microbiota: Bifidobacterium longum; format: cell-based; conditions: Bi. longum HM 848
Excerpt: as §1, §2

L. gasseri = test: MIC against human normal gut microbiota: L. gasseri; format: cell-based, Lactobacillus gasseri; conditions: L. gasseri HM 407
Excerpt: as §1, §2

E. faecalis (VRE) = test: microbe, parasite or virus in culture; format: cell-based, Enterococcus faecalis; conditions: aerobic, 37° C., at least 18 hours
Protocol: as §3

L. reuteri = test: MIC against human normal gut microbiota: L. reuteri; format: cell-based, Lactobacillus reuteri; conditions: L. reuteri HM 120
Excerpt: as §1, §2

MRSA (USA300) = test: microbe, parasite or virus in culture; format: cell-based, Staphylococcus aureus; conditions: aerobic, 37° C., at least 18 hours
Protocol: as §3

C. albicans = test: Broth microdilution against Candida albicans; format: cell-based; conditions: gradient 128 to 1 μg/mL, 24 hours
Protocol: as §3

Bi. breve = test: MIC against human normal gut microbiota: Bifidobacterium breve; format: cell-based; conditions: Bi. breve HM 856
Excerpt: as §1, §2

Ba. fragilis = test: MIC against human normal gut microbiota: Bacteroides fragilis; format: cell-based
Excerpt: as §1, §2

L. casei = test: MIC against human normal gut microbiota: L. casei; format: cell-based, Lactobacillus casei; conditions: L. casei HM 334
Excerpt: as §1, §2

Clostridioides difficile = test: MIC by broth microdilution against Clostridioides difficile (Table 1); format: cell-based; conditions: anaerobic, 48 hours; strain BAA-1870
Protocol: as §3

[1] = system: clinically important Clostridioides difficile strains; test: MIC against clinically important Clostridioides difficile strains; format: cell-based
Protocol: (§4) The antibacterial activity of compounds 48, 50, 51, 61 and 85 against a panel of Clostridioides difficile strains was evaluated. A bacterial solution equivalent to 0.5 McFarland standard was prepared and diluted in brain heart infusion broth supplemented with hemin and vitamin K. Compounds and control drugs were added in the first row of 96-well plates and serially diluted with media containing bacteria (to achieve a concentration gradient ranging from 128 to 1 μg/mL). Plates were then incubated anaerobically at […] for 48 hours.

[2] = system: hypervirulent Clostridioides difficile strains; test: MIC against hypervirulent Clostridioides difficile strains; format: cell-based
Protocol: as §4

E. coli (TolC mutant) = test: MIC by broth microdilution against E. coli (TolC mutant); format: cell-based, Escherichia coli; conditions: for MIC E. coli (TolC mutant): aerobic, 37° C., at least 18 hours
Protocol: as §3

Ba. dorsei = test: MIC against human normal gut microbiota: Bacteroides dorsei; format: cell-based
Excerpt: as §1, §2

SMILES: C=C1C(=O)O[C@H](c2c(OC)cc(OC)cc2OC)[C@@H]1c1ccc(C(F)(F)F)cc1 (racemic) [Compound 61]
- MIC (L. crispatus; L. crispatus HM 375): >128 µg/mL
- MIC (L. crispatus; L. crispatus HM 421): >128 µg/mL
- inhibition of the tested strains of E. faecium (E. faecium): did not inhibit
- MIC (Bi. longum): >128 µg/mL
- MIC (L. gasseri): >128 µg/mL
- MIC E. faecalis (VRE) (E. faecalis (VRE)): >128 µg/mL
- MIC (L. reuteri): >128 µg/mL
- MIC MRSA (USA300) (MRSA (USA300)): >128 µg/mL
- activity against C. albicans (C. albicans): inactive
- MIC (Bi. breve): >128 µg/mL
- MIC (Ba. fragilis; Ba. fragilis HM 709): >128 µg/mL
- MIC (Ba. fragilis; Ba. fragilis HM 710): >128 µg/mL
- MIC (Ba. fragilis; Ba. fragilis HM 711): >128 µg/mL
- MIC (Ba. fragilis; Ba. fragilis HM 714): >128 µg/mL
- MIC (L. casei): >128 µg/mL
- MIC Clostridioides difficile (Clostridioides difficile): 8 µg/mL (≈ 19.6 µM)
- MIC ([1]; CD strain 16): 16 µg/mL (≈ 39.2 µM)
- MIC ([1]; CD strain 18): 2 µg/mL (≈ 4.9 µM)
- MIC ([1]; CD strain 19): 8 µg/mL (≈ 19.6 µM)
- MIC ([1]; CD strain 1801): 16 µg/mL (≈ 39.2 µM)
- MIC ([1]; CD strain 43255): 4 µg/mL (≈ 9.79 µM)
- MIC ([1]; CD strain P6): 8 µg/mL (≈ 19.6 µM)
- MIC ([1]; CD strain P7): 8 µg/mL (≈ 19.6 µM)
- MIC ([1]; CD strain P13): 8 µg/mL (≈ 19.6 µM)
- MIC ([1]; CD strain P19): 8 µg/mL (≈ 19.6 µM)
- MIC ([2]; CD strain 81): 16 µg/mL (≈ 39.2 µM)
- MIC ([2]; CD strain 82): 16 µg/mL (≈ 39.2 µM)
- MIC ([2]; CD strain 83): 64 µg/mL (≈ 157 µM)
- MIC ([2]; CD strain 84): 64 µg/mL (≈ 157 µM)
- MIC ([2]; CD strain 85): 64 µg/mL (≈ 157 µM)
- MIC ([2]; CD strain 86): 32 µg/mL (≈ 78.4 µM)
- MIC ([2]; CD strain 87): 8 µg/mL (≈ 19.6 µM)
- MIC ([2]; CD strain 90): 16 µg/mL (≈ 39.2 µM)
- MIC ([2]; CD strain 49279): 64 µg/mL (≈ 157 µM)
- MIC ([2]; CD strain 49287): 8 µg/mL (≈ 19.6 µM)
- MIC ([2]; CD strain 49291): 8 µg/mL (≈ 19.6 µM)
- MIC E. coli (TolC mutant) (E. coli (TolC mutant)): >128 µg/mL
- MIC (Ba. dorsei; Ba. dorsei HM 29): >128 µg/mL
- MIC (Ba. dorsei; Ba. dorsei HM 717): >128 µg/mL

SMILES: C=C1C(=O)O[C@H](c2ccc(OCc3ccccc3)c(OC(C)=O)c2)[C@@H]1c1ccccc1Br (racemic) [Compound 85]
- MIC (L. crispatus; L. crispatus HM 375): >128 µg/mL
- MIC (L. crispatus; L. crispatus HM 421): >128 µg/mL
- inhibition of the tested strains of E. faecium (E. faecium): did not inhibit
- MIC (Bi. longum): >128 µg/mL
- MIC (L. gasseri): >128 µg/mL
- MIC E. faecalis (VRE) (E. faecalis (VRE)): >128 µg/mL
- MIC (L. reuteri): >128 µg/mL
- MIC MRSA (USA300) (MRSA (USA300)): >128 µg/mL
- activity against C. albicans (C. albicans): inactive
- MIC (Bi. breve): >128 µg/mL
- MIC (Ba. fragilis; Ba. fragilis HM 709): >128 µg/mL
- MIC (Ba. fragilis; Ba. fragilis HM 710): >128 µg/mL
- MIC (Ba. fragilis; Ba. fragilis HM 711): >128 µg/mL
- MIC (Ba. fragilis; Ba. fragilis HM 714): >128 µg/mL
- MIC (L. casei): >128 µg/mL
- MIC Clostridioides difficile (Clostridioides difficile): 4 µg/mL (≈ 8.11 µM)
- MIC ([1]; CD strain 16): 4 µg/mL (≈ 8.11 µM)
- MIC ([1]; CD strain 18): 4 µg/mL (≈ 8.11 µM)
- MIC ([1]; CD strain 19): 4 µg/mL (≈ 8.11 µM)
- MIC ([1]; CD strain 1801): 2 µg/mL (≈ 4.05 µM)
- MIC ([1]; CD strain 43255): 4 µg/mL (≈ 8.11 µM)
- MIC ([1]; CD strain P6): 4 µg/mL (≈ 8.11 µM)
- MIC ([1]; CD strain P7): 4 µg/mL (≈ 8.11 µM)
- MIC ([1]; CD strain P13): 4 µg/mL (≈ 8.11 µM)
- MIC ([1]; CD strain P19): 2 µg/mL (≈ 4.05 µM)
- MIC ([2]; CD strain 81): 4 µg/mL (≈ 8.11 µM)
- MIC ([2]; CD strain 82): 2 µg/mL (≈ 4.05 µM)
- MIC ([2]; CD strain 83): 4 µg/mL (≈ 8.11 µM)
- MIC ([2]; CD strain 84): 4 µg/mL (≈ 8.11 µM)
- MIC ([2]; CD strain 85): 2 µg/mL (≈ 4.05 µM)
- MIC ([2]; CD strain 86): 4 µg/mL (≈ 8.11 µM)
- MIC ([2]; CD strain 87): 2 µg/mL (≈ 4.05 µM)
- MIC ([2]; CD strain 90): 2 µg/mL (≈ 4.05 µM)
- MIC ([2]; CD strain 49279): 4 µg/mL (≈ 8.11 µM)
- MIC ([2]; CD strain 49287): 2 µg/mL (≈ 4.05 µM)
- MIC ([2]; CD strain 49291): 2 µg/mL (≈ 4.05 µM)
- MIC E. coli (TolC mutant) (E. coli (TolC mutant)): >128 µg/mL
- MIC (Ba. dorsei; Ba. dorsei HM 29): >128 µg/mL
- MIC (Ba. dorsei; Ba. dorsei HM 717): >128 µg/mL

SMILES: CC(=O)NC[C@H]1CN(c2ccc(N3CCOCC3)c(F)c2)C(=O)O1 [Linezolid, reference compound]
- MIC (E. faecalis (VRE); Enterococcus faecalis, VRE): 1 µg/mL (≈ 2.96 µM)
- MIC (MRSA (USA300); Staphylococcus aureus, read-out: MIC MRSA (USA300)): 1 µg/mL (≈ 2.96 µM)
- MIC (E. coli (TolC mutant); Escherichia coli, 18 h, read-out: MIC E. coli (TolC mutant)): 16 µg/mL (≈ 47.4 µM)
